Source: US20090005374A1, “IMIDAZOPYRIDINYL THIAZOLYL HISTONE DEACETYLASE INHIBITORS” (priority 2007, published 2009)

Assays:
HDAC 1 [1] = target: T1, HDAC 1 (Homo sapiens, UniProt Q13547); test: HDAC 1 fluorogenic peptide substrate assay with 3-hour enzyme/compound preincubation; format: biochemical; details: 3-hour preincubation of enzyme and compound; read-out: HDAC 1 inhibitory activity (IC50) 3-hour preincubation
Method: (§1) The second assay is similar to the first assay described above, except that preincubation is carried out for about 3 hours after the enzyme is introduced. The test compound was suspended in, and titrated in DMSO. It was then spotted into a 384-well test plate. The enzyme, HDAC 1 or 6, was diluted in the same assay buffer as used in the previous assay and added to the pre-spotted compound. The enzyme/compound mix was incubated at room temperature for about 3 hours. The peptide substrate containing a fluorophore/quencher pair was diluted in the assay buffer and added to the compound/enzyme mix initiating the reaction. The reaction incubated at room temperature for 45 minutes. A concentrated developer solution was diluted in the assay buffer, and added to the reaction. The reaction was incubated at room temperature for about 15 minutes and relative fluorescence was read on an instrument reader.

HDAC 6 [2] = target: T2, HDAC 6 (Homo sapiens, UniProt Q9UBN7); test: HDAC 6 fluorogenic peptide substrate assay without preincubation; format: biochemical; details: no preincubation; read-out: HDAC 6 inhibitory activity (IC50) No preincubation
T2 sequence (Q9UBN7 1-1215): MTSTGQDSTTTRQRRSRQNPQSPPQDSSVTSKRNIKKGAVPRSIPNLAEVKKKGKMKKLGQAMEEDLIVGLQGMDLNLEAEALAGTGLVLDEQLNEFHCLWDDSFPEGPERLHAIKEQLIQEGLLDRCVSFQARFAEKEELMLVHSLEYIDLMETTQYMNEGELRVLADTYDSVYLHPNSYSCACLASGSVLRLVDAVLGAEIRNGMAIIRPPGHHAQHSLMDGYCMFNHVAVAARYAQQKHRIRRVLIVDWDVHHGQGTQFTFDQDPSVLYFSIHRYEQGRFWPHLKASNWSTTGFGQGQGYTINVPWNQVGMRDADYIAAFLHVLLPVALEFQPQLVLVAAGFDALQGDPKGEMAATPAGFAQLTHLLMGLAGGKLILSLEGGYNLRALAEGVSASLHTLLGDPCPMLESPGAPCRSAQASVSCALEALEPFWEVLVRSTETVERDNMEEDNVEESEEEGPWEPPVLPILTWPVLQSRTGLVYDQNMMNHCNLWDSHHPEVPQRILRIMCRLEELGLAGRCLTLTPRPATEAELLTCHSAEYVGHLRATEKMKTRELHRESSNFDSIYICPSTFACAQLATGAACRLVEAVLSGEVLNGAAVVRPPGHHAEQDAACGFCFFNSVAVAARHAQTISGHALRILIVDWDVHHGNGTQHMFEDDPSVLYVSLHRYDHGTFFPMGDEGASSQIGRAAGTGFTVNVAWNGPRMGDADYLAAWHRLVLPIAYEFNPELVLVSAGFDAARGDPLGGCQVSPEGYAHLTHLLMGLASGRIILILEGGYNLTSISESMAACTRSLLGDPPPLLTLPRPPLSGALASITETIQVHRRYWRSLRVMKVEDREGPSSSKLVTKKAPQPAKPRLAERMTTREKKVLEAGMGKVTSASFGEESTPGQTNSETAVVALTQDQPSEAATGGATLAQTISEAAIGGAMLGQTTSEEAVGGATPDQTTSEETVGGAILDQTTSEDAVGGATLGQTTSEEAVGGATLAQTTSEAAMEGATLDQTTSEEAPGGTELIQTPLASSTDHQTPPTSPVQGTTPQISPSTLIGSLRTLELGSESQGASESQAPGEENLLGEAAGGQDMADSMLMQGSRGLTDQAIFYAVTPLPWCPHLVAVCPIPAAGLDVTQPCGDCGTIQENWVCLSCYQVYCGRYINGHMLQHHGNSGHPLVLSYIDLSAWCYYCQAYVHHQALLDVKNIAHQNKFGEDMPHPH
Method: (§2) HDAC inhibitory activity of the compound of Example 1 was measured by two types of assays in which HDAC 1 and 6 were used as a target molecule. The first assay was carried out without preincubation after addition of the enzyme. The test compound was suspended in and titrated in DMSO. It was then spotted into a 384-well test plate. The enzyme, HDAC 1 or 6, was diluted in assay buffer containing 25 mM Tris-HCl (pH 8.0), 137 mM NaCl, 2.7 mM KCl, and 0.01% Tween-20 and added to the pre-spotted compound. The peptide substrate containing a fluorophore/quencher pair was diluted in the same assay buffer and added to the compound/enzyme mix initiating the reaction. The reaction incubated at room temperature for about 45 minutes. A concentrated developer solution was diluted in the assay buffer, and added to the reaction. The reaction was incubated at room temperature for about 15 minutes and relative fluorescence was read on an instrument reader.

HDAC 1 [3] = target: T1, HDAC 1; test: HDAC 1 fluorogenic peptide substrate assay without preincubation; format: biochemical; details: no preincubation; read-out: HDAC 1 inhibitory activity (IC50) No preincubation
Method: as §2

HDAC 6 [4] = target: T2, HDAC 6; test: HDAC 6 fluorogenic peptide substrate assay with 3-hour enzyme/compound preincubation; format: biochemical; details: 3-hour preincubation of enzyme and compound; read-out: HDAC 6 inhibitory activity (IC50) 3-hour preincubation
Method: as §1

T1 sequence (Q13547 whole entry, species assumed): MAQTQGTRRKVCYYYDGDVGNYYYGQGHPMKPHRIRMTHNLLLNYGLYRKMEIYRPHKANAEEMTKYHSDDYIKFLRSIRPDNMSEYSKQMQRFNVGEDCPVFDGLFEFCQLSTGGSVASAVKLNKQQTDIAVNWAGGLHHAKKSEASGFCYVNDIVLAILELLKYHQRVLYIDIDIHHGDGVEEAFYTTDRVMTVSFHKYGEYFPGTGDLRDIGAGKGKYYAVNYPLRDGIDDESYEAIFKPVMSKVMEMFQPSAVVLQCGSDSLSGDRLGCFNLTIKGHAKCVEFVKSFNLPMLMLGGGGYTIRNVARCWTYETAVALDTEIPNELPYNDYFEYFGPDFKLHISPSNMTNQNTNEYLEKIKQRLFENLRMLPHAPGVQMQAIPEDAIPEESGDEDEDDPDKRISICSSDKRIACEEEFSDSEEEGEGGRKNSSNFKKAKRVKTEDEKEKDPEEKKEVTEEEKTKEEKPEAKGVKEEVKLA

## Nc1ccccc1NC(=O)c1ccc(Nc2ncc(-c3cnc4ccccn34)s2)cc1 [Example 20, N-(2-Amino-phenyl)-4-(5-imidazo[1,2-a]pyridin-3-yl-thiazol-2-ylamino)-benzamide]
HDAC 1 [1]
  IC50: 48 nM

## Cc1nc2ccccn2c1-c1csc(Nc2cccc(C(=O)Nc3ccccc3N)c2)n1 [Example 2, N-(2-Amino-phenyl)-3-[4-(2-methyl-imidazo[1,2-a]pyridin-3-yl)-thiazol-2-ylamino]-benzamide]
HDAC 6 [2]
  IC50: > 50000 nM
HDAC 1 [3]
  IC50: 3260 nM
HDAC 6 [4]
  IC50: > 50000 nM
other
  melting point: 194.9 to 197 °C
HDAC 1 [1]
  IC50: 42000 nM

## O=C(NO)c1ccc(Nc2nc(-c3cnc4ccccn34)cs2)cc1 [Example 13, N-Hydroxy-4-(4-imidazo[1,2-a]pyridin-3-yl-thiazol-2-ylamino)-benzamide]
HDAC 6 [2]
  IC50: 18.5 nM
HDAC 1 [3]
  IC50: 85.5 nM
HDAC 6 [4]
  IC50: 17 nM
other
  melting point: 209.9 °C
HDAC 1 [1]
  IC50: 29 nM

## Cc1sc(Nc2ccc(C(=O)NO)cc2)nc1-c1cnc2ccccn12 [Example 18, N-Hydroxy-4-(4-imidazo[1,2-a]pyridin-3-yl-5-methyl-thiazol-2-ylamino)-benzamide]
other
  melting point: 262.6 °C
HDAC 1 [1]
  IC50: 46.7 nM

## Cc1nc2ccc(C(F)(F)F)cn2c1-c1csc(Nc2ccc(C(=O)Nc3ccccc3N)cc2)n1 [Example 10, N-(2-Amino-phenyl)-4-[4-(2-methyl-6-trifluoromethyl-imidazo[1,2-a]pyridin-3-yl)-thiazol-2-ylamino]-benzamide]
HDAC 1 [1]
  IC50: 59 nM

## Cc1nc2ccccn2c1-c1nc(Nc2ccc(C(=O)Nc3ccccc3N)cc2)sc1C [Example 6, N-(2-Amino-phenyl)-4-[5-methyl-4-(2-methyl-imidazo[1,2-a]pyridin-3-yl)-thiazol-2-ylamino]-benzamide]
other
  melting point: 250.1 °C
HDAC 1 [1]
  IC50: 21.5 nM

## Cc1sc(Nc2ccc(C(=O)Nc3nn(-c4ccccc4)cc3N)cc2)nc1-c1cnc2ccccn12 [Example 19, N-(4-Amino-1-phenyl-1H-pyrazol-3-yl)-4-(4-imidazo [1,2-a]pyridin-3-yl-5-methyl-thiazol-2-ylamino)-benzamide]
HDAC 1 [1]
  IC50: 6030 nM

## Cc1nc2ccccn2c1-c1csc(Nc2ccc(C(=O)NO)cc2)n1 [Example 3, N-Hydroxy-4-[4-(2-methyl-imidazo[1,2-a]pyridin-3-yl)-thiazol-2-ylamino]-benzamide]
HDAC 6 [2]
  IC50: 46.7 nM
HDAC 1 [3]
  IC50: 80 nM
HDAC 6 [4]
  IC50: 55.8 nM
other
  melting point: 188.3 °C
HDAC 1 [1]
  IC50: 53.5 nM

## Nc1ccccc1NC(=O)c1ccc(Nc2nc(-c3cnc4ccccn34)cs2)cc1 [Example 15, N-(2-Amino-phenyl)-4-(4-imidazo[1,2-a]pyridin-3-yl-thiazol-2-ylamino)-benzamide]
HDAC 6 [4]
  IC50: > 10000 nM
other
  melting point: 229.4 °C
HDAC 1 [1]
  IC50: 37 nM

## COc1ccn2c(-c3csc(Nc4ccc(C(=O)NO)cc4)n3)c(C)nc2c1 [Example 12, N-Hydroxy-4-[4-(7-methoxy-2-methyl-imidazo[1,2-a]pyridin-3-yl)-thiazol-2-ylamino]-benzamide]
HDAC 1 [1]
  IC50: 62.6 nM

## Nc1ncccc1NC(=O)c1ccc(Nc2nc(-c3cnc4ccccn34)cs2)cc1 [Example 16, N-(2-Amino-pyridin-3-yl)-4-(4-imidazo[1,2-a]pyridin-3-yl-thiazol-2-ylamino)-benzamide]
HDAC 1 [1]
  IC50: 9130 nM

## Cc1nc2ccc(Cl)cn2c1-c1csc(Nc2ccc(C(=O)NO)cc2)n1 [Example 7, 4-[4-(6-Chloro-2-methyl-imidazo[1,2-a]pyridin-3-yl)-thiazol-2-ylamino]-N-hydroxy-benzamide]
HDAC 1 [1]
  IC50: 22 nM

## Cc1nc2ccccn2c1-c1csc(Nc2cccc(C(=O)NO)c2)n1 [Example 1, N-Hydroxy-3-[4-(2-methyl-imidazo[1,2-a]pyridin-3-yl)-thiazol-2-ylamino] -benzamide]
HDAC 6 [2]
  IC50: 318 nM
HDAC 1 [3]
  IC50: 1080 nM
HDAC 6 [4]
  IC50: 490 nM
other
  melting point: 170.4 °C
HDAC 1 [1]
  IC50: 92.7 nM

## Cc1nc2ccccn2c1-c1csc(N(CC(F)(F)F)c2ccc(C(=O)NO)cc2)n1 [Example 21b, N-Hydroxy-4-[[4-(2-methyl-imidazo[1,2-a]pyridin-3-yl)-thiazol-2-yl]-(2,2,2-trifluoro-ethyl)-amino]-benzamide]
HDAC 1 [1]
  IC50: 5580 nM

## Cc1nc2ccc(C(F)(F)F)cn2c1-c1csc(Nc2ccc(C(=O)NO)cc2)n1 [Example 9, N-Hydroxy-4-[4-(2-methyl-6-trifluoromethyl-imidazo[1,2-a]pyridin-3-yl)-thiazol-2-ylamino]-benzamide]
other
  melting point: 183.2 °C
HDAC 1 [1]
  IC50: 154 nM

## Cc1nc2ccccn2c1-c1csc(N(CC(F)(F)F)c2ccc(C(=O)Nc3ccccc3N)cc2)n1 [Example 21a, N-(2-Amino-phenyl)-4-[[4-(2-methyl-imidazo[1,2-a]pyridin-3-yl)-thiazol-2-yl]-(2,2,2-trifluoro-ethyl)-amino]-benzamide]
HDAC 1 [1]
  IC50: 147 nM

## O=C(NO)c1cccc(Nc2nc(-c3cnc4ccccn34)cs2)c1 [Example 14, N-Hydroxy-3-(4-imidazo[1,2-a]pyridin-3-yl-thiazol-2-ylamino)-benzamide]
HDAC 6 [2]
  IC50: 183 nM
HDAC 1 [3]
  IC50: 5400 nM
other
  melting point: 184.1 °C
HDAC 1 [1]
  IC50: 114 nM

## Cc1nc2ccccn2c1-c1nc(Nc2ccc(C(=O)NO)cc2)sc1C [Example 5, N-Hydroxy-4-[5-methyl-4-(2-methyl-imidazo[1,2-a]pyridin-3-yl)-thiazol-2-ylamino]-benzamide]
other
  melting point: 200.5 °C
HDAC 1 [1]
  IC50: 53.9 nM

## Cc1nc2ccc(Cl)cn2c1-c1csc(Nc2ccc(C(=O)Nc3ccccc3N)cc2)n1 [Example 8, N-(2-Amino-phenyl)-4-[4-(6-chloro-2-methyl-imidazo[1,2-a]pyridin-3-yl)-thiazol-2-ylamino]-benzamide]
HDAC 1 [1]
  IC50: 51 nM

## COc1ccn2c(-c3csc(Nc4ccc(C(=O)Nc5ccccc5N)cc4)n3)c(C)nc2c1 [Example 11, N-(2-Amino-phenyl)-4-[4-(7-methoxy-2-methyl-imidazo[1,2-a]pyridin-3-yl)-thiazol-2-ylamino]-benzamide]
other
  melting point: 159.7 °C
HDAC 1 [1]
  IC50: 56.9 nM

## Cc1sc(Nc2ccc(C(=O)Nc3ccccc3N)cc2)nc1-c1cnc2ccccn12 [Example 17, N-(2-Amino-phenyl)-4-(4-imidazo[1,2-a]pyridin-3-yl-5-methyl-thiazol-2-ylamino)-benzamide]
other
  melting point: 186.5 °C
HDAC 1 [1]
  IC50: 24.6 nM

## Cc1nc2ccccn2c1-c1csc(Nc2ccc(C(=O)Nc3ccccc3N)cc2)n1 [Example 4, N-(2-Amino-phenyl)-4-[4-(2-methyl-imidazo[1,2-a]pyridin-3-yl)-thiazol-2-ylamino]-benzamide]
HDAC 6 [2]
  IC50: > 50000 nM
HDAC 1 [3]
  IC50: 313 nM
HDAC 6 [4]
  IC50: > 50000 nM
other
  melting point: 161.1 to 165.4 °C
HDAC 1 [1]
  IC50: 80 nM
